Read-outs that look alike come from different tables or passages of the source.
What was measured:
[1] = tested on: cancer cell lines U251, PC-3, K562, HCT-15, MCF-7, SKLU-1; test: SRB cytotoxicity assay, panel of six cancer cell lines; assay type: cell-based, human; conditions: for growth inhibition (cytotoxic activity) of cancer cell lines: 25 μg/mL, six cell lines, result in words (Figure 1)
Procedure: (§1) Cytotoxicity was evaluated based on the percentage of cell growth inhibition. The cancer cell lines were obtained from the National Cancer Institute (NCI, Bethesda, MD). The study utilized human cancer cell lines derived from central nervous system glia (U251), prostate (PC-3), leukemia (K562), colon (HCT-15), breast (MCF-7), and lung (SKLU). Each cell line was maintained in RPMI 1640 medium supplemented with fetal bovine serum (10%), L-glutamate (2.0 mM), 10,000 units/mL penicillin G, […] streptomycin sulfate, 25 mg/mL amphotericin B and 1% nonessential amino acids. Cytotoxicity was assessed by treating cancerous cells with the extract, the saponin fraction, and the major isolated compounds, all of which were solubilized in ultrapure water (18.2 MΩ) and tested at a concentration of 25 μg/mL. For the determination of IC50 values, the same cancer cell lines were evaluated and had the same treatment, while the range of concentrations was 25, 12.5, 6.5, 5.0, 2.5, and 1.25 μg/mL in triplicate wells for each concentration; commercially formulated mitoxantrone, used as a water-soluble chemotherapeutic drug, was used as a positive control, and ultrapure water was used as a negative control. The resulting data obtained from the assay for each cell line were analyzed using nonlinear regression to calculate IC50 using GraphPad Prism 10.5.0 (San Diego, CA, USA). The percentage of cell growth inhibition was determined by using the protein-binding dye sulforhodamine B (SRB) in a microculture assay. Cells were harvested from culture flasks and seeded into 96-well plates at a density of 5,000 to 10,000 cells per well, maintaining the same temperature and humidity conditions as during culture incubation. The test compounds were then added, and cells were exposed for 48 h. After incubation, cells were fixed in situ by adding 50 μL of cold 50% trichloroacetic acid and incubating at 4 °C for 1 h. The plates were then washed with Milli-Q water, air-dried at room temperature, and stained with a 0.4% SRB solution. Excess SRB was removed by washing with 1% aqueous acetic acid. The plates were air-dried, and the bound dye was solubilized with 100 μL of a 10 mM unbuffered Tris base. The plates were then shaken for 10 min, and absorbance was measured at 515 nm using a microplate spectrophotometer.

[2] = tested on: human glioblastoma (U251); test: SRB cytotoxicity assay, U251; assay type: cell-based; conditions: U-251, SRB method, 48 h exposure, ± SD, read-out: Cell Line IC50 U251
Procedure: as §1, with “The plates were then washed with Milli-Q water, air-dried at room temperature, and stained with a 0.4% SRB solution. Excess SRB was removed by washing with 1% aqueous acetic acid. The plates were air-dried, and the bound dye was solubilized with 100 μL of a 10 mM unbuffered Tris base.” left out

[3] = tested on: human lung adenocarcinoma (SKLU-1); test: SRB cytotoxicity assay, SKLU-1; assay type: cell-based; conditions: SK-LU-1, SRB method, 48 h exposure, ± SD, read-out: Cell Line IC50 SKLU-1
Procedure: as §1, with “The plates were then washed with Milli-Q water, air-dried at room temperature, and stained with a 0.4% SRB solution. Excess SRB was removed by washing with 1% aqueous acetic acid. The plates were air-dried, and the bound dye was solubilized with 100 μL of a 10 mM unbuffered Tris base.” left out

[4] = tested on: human chronic myelogenous leukemia (K562); test: SRB cytotoxicity assay, K562; assay type: cell-based; conditions: SRB method, 48 h exposure, ± SD, read-out: Cell Line IC50 K562
Procedure: as §1, with “The plates were then washed with Milli-Q water, air-dried at room temperature, and stained with a 0.4% SRB solution. Excess SRB was removed by washing with 1% aqueous acetic acid. The plates were air-dried, and the bound dye was solubilized with 100 μL of a 10 mM unbuffered Tris base.” left out

[5] = tested on: human colorectal adenocarcinoma (HCT-15); test: SRB cytotoxicity assay, HCT-15; assay type: cell-based; conditions: SRB method, 48 h exposure, ± SD, read-out: Cell Line IC50 HCT-15
Procedure: as §1, with “The plates were then washed with Milli-Q water, air-dried at room temperature, and stained with a 0.4% SRB solution. Excess SRB was removed by washing with 1% aqueous acetic acid. The plates were air-dried, and the bound dye was solubilized with 100 μL of a 10 mM unbuffered Tris base.” left out

[6] = tested on: human mammary adenocarcinoma (MCF-7); test: SRB cytotoxicity assay, MCF-7; assay type: cell-based; conditions: MCF7, SRB method, 48 h exposure, ± SD, read-out: Cell Line IC50 MCF-7
Procedure: as §1, with “The plates were then washed with Milli-Q water, air-dried at room temperature, and stained with a 0.4% SRB solution. Excess SRB was removed by washing with 1% aqueous acetic acid. The plates were air-dried, and the bound dye was solubilized with 100 μL of a 10 mM unbuffered Tris base.” left out

[7] = tested on: human prostatic adenocarcinoma (PC-3); test: SRB cytotoxicity assay, PC-3; assay type: cell-based; conditions: SRB method, 48 h exposure, ± SD, read-out: Cell Line IC50 PC-3
Procedure: as §1, with “The plates were then washed with Milli-Q water, air-dried at room temperature, and stained with a 0.4% SRB solution. Excess SRB was removed by washing with 1% aqueous acetic acid. The plates were air-dried, and the bound dye was solubilized with 100 μL of a 10 mM unbuffered Tris base.” left out

[8] = Homo sapiens, span over the evaluated cell lines, SRB method, read-out: IC50 values across the tested cancer cell lines

| Structure (SMILES) | growth inhibition (cytotoxic activity) of cancer cell lines ([1]; SRB method) | IC50 [1, 8] [nM] | IC50 [2] [nM] | IC50 [3] [nM] | IC50 [4] [nM] | IC50 [5] [nM] | IC50 [6] [nM] | IC50 [7] [nM] | IC50 ([1]; Homo sapiens, span over MCF-7 and SKLU-1 cell lines, read-out: IC50 values against MCF-7 and SKLU-1) [nM] | IC50 ([1]; span over the evaluated cell lines, SRB method, read-out: IC50 values across the tested cancer cell lines) [nM] |
| --- | --- | --- | --- | --- | --- | --- | --- | --- | --- | --- |
| CC(=O)OC(C)(C)CCCC1(C)OC(=O)C23C(O)C=C4C(CCC5C4(C)CCC(OC4OCC(OS(=O)(=O)O)C(O)C4OC4OC(C)C(O)C(O)C4O)C5(C)C)C2(C)CCC13O [Inornatoside A (1), 25-acetoxy-3-O-(β-D-quinovopyranosyl-(1→2)-4-O-sodiumsulfate-β-D-xylopyranoside)-holost-9(11)-ene-3β,12α,17α-triol] | significantly more active than holothurin B (7) | 3530 to 5350 | 3530 ± 130 | 3650 ± 20 | 4240 ± 20 | 4690 ± 10 | > 50000 | 5350 ± 10 | – | – |
| COC1C(O)C(CO)OC(OC2C(O)C(CO)OC(OC3C(C)OC(OC4C(OC5CCC6(C)C7=CC(O)C89C(=O)OC(C)(CCCC(C)(C)OC(C)=O)C8(O)CCC9(C)C7CCC6C5(C)C)OCC(OS(=O)(=O)O)C4O)C(O)C3O)C2O)C1O [Inornatoside B (2), 25-acetoxy-3-O-(3-O-methyl-β-D-glucopyranosyl-(1→3)-β-D-glucopyranosyl-(1→4)-β-D-quinovopyranosyl-(1→2)-4-O-sodiumsulfate-β-D-xylopyranoside)-holost-9(11)-ene-3β,12α,17α-triol] | significantly more active than holothurin B (7) | 470 to 1040 | 540 ± 10 | 500 ± 10 | 480 ± 10 | 1040 ± 10 | 470 ± 40 | 490 ± 10 | 470 to 500 | ~500 |
| O=C1c2c(O)ccc(O)c2C(=O)c2c(NCCNCCO)ccc(NCCNCCO)c21 [Mitoxantrone, reference compound] | – | 550 to 1160 | 550 ± 40 | 1160 ± 150 | 650 ± 20 | 750 ± 40 | 720 ± 10 | 630 ± 40 | – | – |
| CC1OC(OC2C(OC3CCC4(C)C5=CC(O)C67C(=O)OC(C)(C8CCC(C)(C)O8)C6(O)CCC7(C)C5CCC4C3(C)C)OCC(OS(=O)(=O)O)C2O)C(O)C(O)C1O (centres unmarked) [holothurin B (7), holothurin B] | did not exhibit high sensitivity | – | – | – | – | – | – | – | – | – |

Reference: PMC12560079, “Cytotoxic Triterpene Glycosides from Mexican Sea Cucumber Holothuria inornata” (Journal of Natural Products, 2025)
